Assay results: patent US20260232590A1, “LIPID NANOPARTICLES FOR THE TREATMENT OF OCULAR DISEASES” (UNIVERSITAT DE BARCELONA, priority 2023, published 2026)

Key:
[1] = In vitro APG release, Franz-type diffusion cells; format: in vitro ADME
Protocol: The in vitro APG release test for Loaded Lipid Nanoparticles was performed using Franz-type diffusion cells (Crown Glass, NY, USA) with a diffusion area of 0.20 cm^2 and dialysis membranes of cellulose (MWCO 12 kDa). A solution of PBS with 5% polysorbate 80 and 20% ethanol under continuous stirring was used as a receptor medium assuring sink conditions (ability of the medium to dissolve the expected amount of drug). The formulations were compared with free-APG solution. The assay was carried out at 32±0.5° C. along 48 h. 300 μL of each formulation were added to the donor compartment by direct contact with the membrane. At a certain timepoints, 150 μL of sample were collected with a syringe and the volume withdrawn was replaced with receptor solution. Drug content of the samples was analysed with HPLC. The test was performed by triplicate, and the cumulative amount of APG was calculated.

[2] = system: chorioallantoic membrane of a fertilized chicken egg; assay: Trypan blue staining (TBS) of the CAM; conditions: after HET-CAM
Protocol: Furthermore, at the end of the HET-CAM experiment, in order to quantify the damage of the membrane, trypan blue staining (TBS) was applied. The CAM was treated with 1000 μL of 0.1% trypan blue solution for 1 min. Excess dye was rinsed off with distilled water. The dyed CAM was excised and extracted with 5 mL formamide, and the absorbance of the extract was measured spectrophotometrically at 595 nm. The absorbed trypan blue was determined from a calibration curve of trypan blue in formamide.

[3] = system: New Zealand male albino rabbits; assay: In vivo primary eye irritation test of Draize; design: species or system rabbit
Protocol: All of the procedures were approved by the Ethical Committee for Animal Experimentation of the UB and current legislation (Decree 214/97, Gencat). The formulations were evaluated using primary eye irritation test of Draize to ensure the results obtained from the […] test. For this experiment, New Zealand male albino rabbits (2.0-2.5 kg, San Bernardo farm, Navarra, Spain) were used. 50 μL of each sample were instilled in the ocular conjunctival sac (n=3/group) and a mild massage was applied to guarantee the passage of the sample through the eyeball. […] The opposite untreated eye was used as a negative control. Draize test score was determined directly by observing the anterior segment of the eye and changes in the structures of the cornea (turbidity or opacity), iris and conjunctiva (congestion, chemosis, swelling and secretion).

[4] = system: dry eye induced by 0.1% benzalkonium chloride; assay: Dry eye disease model, Schirmer test (aqueous tear production); format: in vivo, New Zealand white rabbits; conditions: twice-daily topical, one week
Protocol: In order to evaluate the potential to treat dry eye of Loaded Lipid Nanoparticles, Schirmer test, fluorescein and Bengal rose assessments were performed against Lipid Nanoparticles, free APG and 0.15% hyaluronic acid (commercial solution Hyabak®). Twelve male New Zealand white rabbits (purchased from Livestock Research Institute, Council of Agriculture, Executive Yuan, Taiwan) weighing between 2.0 and 2.5 kg were used for the study. The rabbits were randomly divided into 4 groups: Lipid Nanoparticles, Loaded Lipid Nanoparticles, free APG solution and 0.15% hyaluronic acid (commercial solution (Hyabak®). All rabbits were housed at a room temperature of 23±2° C. with relative humidity 75±10% and alternating 12-hour light-dark cycles (8 a.m. to 8 p.m.). Both eyes of each rabbit were treated twice-daily by a topical administration of 0.1% benzalkonium chloride (BAC) drops for 2 weeks. On day 14, DES was confirmed by Schirmer test, fluorescein and Bengal rose staining. The treatment began after the confirmation of DES, where on eye of each rabbit was chosen randomly for twice-daily topical administration of Lipid Nanoparticles, Loaded Lipid Nanoparticles, free APG solution and a commercial solution. […] Tear production was measured using Schirmer test strips. […] After 5 min, the wetted length (mm) of the paper strips was recorded.

[5] = system: dry eye induced by 0.1% benzalkonium chloride; assay: Dry eye disease model, fluorescein staining of the ocular surface; format: in vivo, New Zealand white rabbits; conditions: twice-daily topical, one week
Protocol: In order to evaluate the potential to treat dry eye of Loaded Lipid Nanoparticles, Schirmer test, fluorescein and Bengal rose assessments were performed against Lipid Nanoparticles, free APG and 0.15% hyaluronic acid (commercial solution Hyabak®). Twelve male New Zealand white rabbits (purchased from Livestock Research Institute, Council of Agriculture, Executive Yuan, Taiwan) weighing between 2.0 and 2.5 kg were used for the study. The rabbits were randomly divided into 4 groups: Lipid Nanoparticles, Loaded Lipid Nanoparticles, free APG solution and 0.15% hyaluronic acid (commercial solution (Hyabak®). All rabbits were housed at a room temperature of 23±2° C. with relative humidity 75±10% and alternating 12-hour light-dark cycles (8 a.m. to 8 p.m.). Both eyes of each rabbit were treated twice-daily by a topical administration of 0.1% benzalkonium chloride (BAC) drops for 2 weeks. On day 14, DES was confirmed by Schirmer test, fluorescein and Bengal rose staining. The treatment began after the confirmation of DES, where on eye of each rabbit was chosen randomly for twice-daily topical administration of Lipid Nanoparticles, Loaded Lipid Nanoparticles, free APG solution and a commercial solution. After one week of treatment, Schirmer test, fluorescein and Bengal rose staining were performed. Fluorescein staining is an effective method for ocular surface evaluation. […]

HCE-2 cells = assay: MTT cell viability in corneal cells; format: cell-based, human; conditions: 5- and 15-minutes incubation
Protocol: (§1) Human corneal epithelial cells (HCE-2) (LGC Standards, Barcelona, Spain) were cultured in keratinocyte serum-free growth medium (SFM; Life Technologies, Invitrogen, GIBCO®, Paisley, UK)). It was supplemented with bovine pituitary extract 0.05 mg·mL^−1 and epidermal growth factor 5 ng·mL^−1 containing insulin 0.005 mg·mL^−1 and penicillin 100 U·mL^−1 plus streptomycin […]. Cells were grown on a culture flask to 80% confluency in a humidified 10% CO2 atmosphere at 37° C. Human UM 92-1 cells were maintained in RPMI-1640 medium, added with 10% fetal bovine serum (FBS), 2 mM L-glutamine, 100 units/mL penicillin and […] streptomycin. For MTT assay, passages from 10 to 13 were used. All the cells were incubated at 37° C. and 10% CO2 [28].
(§2) Cytotoxicity of Loaded Lipid Nanoparticles and Lipid Nanoparticles was determined by MTT (3-(4,5-Dimethylthiazol-2-yl)-2,5-diphenyl tetrazolium bromide) assay, by reduction of tetrazolium salt by intracellular dehydrogenases of viable living cells. […] Cell viability was then measured at wavelength of 560 nm in a Modulus® Microplate Photometer (Turner BioSystems Inc., Sunnyvale, CA, USA). Results were expressed as percentage of cell survival relative to untreated cells.
The cytotoxicity of several concentrations of free APG, Loaded Lipid Nanoparticles, and the Lipid Nanoparticles (without APG) were evaluated on HCE-2 cells. […]

UM 92.1 cancer cells = assay: MTT cytotoxic capacity in ocular tumoral cells; format: cell-based, human; conditions: 0.005-0.05 mg/mL, 24 h
Protocol: as §1
as §2, with “untreated cells. […]” for “untreated cells.”

CAM of embryonated eggs = assay: Antiangiogenic activity, modified CAM test; design: species or system chicken; conditions: 40 μL, 48 h
Protocol: To determine the antiangiogenic effects of Loaded Lipid Nanoparticles, a modified choriolantoic membrane (CAM) test was used. It was carried out using fertilised chicken eggs incubated at 37° C. and 85% humidity from the farm […] (Tarragona, Spain). A lateral window was opened on the eggshell on the 3rd day of incubation and after 24 h of stabilization, 40 μL of the sample were inoculated to the CAM. Afterwards the membrane was sealed and incubated for 48 h. The controls of the experiments were NaCl as a normal angiogenic development, and basic fibroblast growth factor (bFGF) as a pro-angiogenic control (20 μL at 10 ng·mL^-1). Once CAM were evaluated, membranes were fixed by adding 4% paraformaldehyde overnight at 4° C. Next, membranes were extracted and observed using a binocular loupe. Afterwards, the obtained images were processed and the density of the vessels in the CAM was automatically measured using ImageJ vessel analysis plugin [34].

[6] = system: ocular inflammation induced by sodium arachidonate; assay: In vivo anti-inflammatory treatment study (sodium arachidonate); design: species or system New Zealand male albino rabbits; conditions: applied 30 min after SA
Protocol: In vivo anti-inflammatory effectiveness was carried out throughout the evaluation test for the inflammation prevention ability and the anti-inflammatory efficacy. Assays were carried out using New Zealand male albino rabbits (n=3/group), described previously. The activity of Loaded Lipid Nanoparticles in comparison with free APG, Lipid Nanoparticles, and NaCl 0.9% (control group) was measured. The inflammation prevention study consisted of the ocular application of 50 μL of each formulation. After 30 min of exposure, an inflammatory stimulus, 50 μL of 0.5% sodium arachidonate (SA) dissolved in PBS, was instilled in the right eye and the left eye was used as a control. In the anti-inflammatory treatment study, the inflammatory stimulus was applied 30 min before than the application of each formulation tested. The evaluation of prevention and treatment of each formulation were carried out from the first application up to 210 min, according to the Draize modified test scoring system.

[7] = concentration of 0.5%; cited from earlier work
[8] = system: chorioallantoic membrane of a fertilized chicken egg; assay: In vitro ocular tolerance HET-CAM test; conditions: 300 μL, first 5 min
Protocol: In vitro ocular tolerance was assessed using the HET-CAM test to ensure that the formulations of Loaded Lipid Nanoparticles were non-irritating when administered as eye-drops. Irritation, coagulation, and haemorrhage phenomena were measured by applying 300 μL of the formulation studied on chorioallantoic membrane of a fertilized chicken egg and monitoring it during the first 5 min after the application. This assay was conducted according to the guidelines of ICCVAM (The Interagency Coordinating Committee on the Validation of Alternative Methods). The development of the test was carried out using 3 eggs for each group (free APG, Loaded Lipid Nanoparticles, positive control (NaOH 0.1 M) and negative control (0.9% NaCl)). The ocular irritation index (OII) was calculated by the sum of the scores of each injury according to the following expression (Eq 3):
[formula] • where H, V and C are times (s) until the start of haemorrhage (H), vasoconstriction (V) and coagulation (C), respectively. The formulations were classified according to the following: OII≤0.9 non-irritating; 0.9<OII≤4.9 weakly irritating; 4.9<OII≤8.9 moderately irritating; 8.9<OII≤21 irritating.

O=c1cc(-c2ccc(O)cc2)oc2cc(O)cc(O)c12 [free APG, Apigenin]
in vitro release profile ([1]; 48 h): faster release
APG released ([1]; at 24 h, 32° C., PBS with 5% polysorbate 80 and 20% ethanol): 100%
TBS quantitative result (irritancy) [2]: irritant
Draize test irritancy in vivo ([3]; 50 μL in conjunctival sac): non-irritant
discomfort after instillation ([3]; in vivo): caused an initial discomfort
tear flow (Schirmer test) versus dry eye group [4]: did not improve the tear flow
fluorescein staining score, corneal surface [5]: worse punctuation in the staining
cell viability (HCE-2 cells): ≥ 80%
cell viability / toxicity (HCE-2 cells; all the tested concentrations): did not show toxicity
cytotoxicity against cancer cells (UM 92.1 cancer cells): significant toxicity
vascular density versus negative control (NaCl) (CAM of embryonated eggs): not significant
inflammation treatment effect [6]: able to treat fast the inflammation

CCCCCCCCCCCCCCCCCC[N+](C)(C)CCCCCCCCCCCCCCCCCC.[Br-] [DDAB, dimethyldioctadecylammonium bromide]
toxicity in ocular delivery [7]: had not shown any toxicity

[Na+].[OH-] [NaOH]
HET-CAM irritation classification [8]: severe irritant
